According to PubChem BioAssay (NCI):
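Grown in 96-well plates, cells were treated for 48 hours with each compound at five concentrations. Insufficient inhibition: endpoint recorded as highest concentration tested. Here, GI50 denotes the concentration required for 50% inhibition of growth. TGI marks complete inhibition of growth.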

Tests used:
Assay in all cases: NCI tumour cell line growth inhibition, 48 h
HOP-92 NSCLC = tested on: HOP-92 NSCLC
SW-620 colon = tested on: SW-620 colon
HOP-62 NSCLC = tested on: HOP-62 NSCLC
EKVX NSCLC = tested on: EKVX NSCLC
SF-539 CNS = tested on: SF-539 CNS
MOLT-4 leukemia = tested on: MOLT-4 leukemia
UACC-257 melanoma = tested on: UACC-257 melanoma
SF-268 CNS = tested on: SF-268 CNS
SF-295 CNS = tested on: SF-295 CNS
ACHN renal = tested on: ACHN renal
786-0 renal = tested on: 786-0 renal
T-47D breast = tested on: T-47D breast
U251 CNS = tested on: U251 CNS
NCI-H460 lung = tested on: NCI-H460 lung
SR leukemia = tested on: SR leukemia
NCI-H522 lung = tested on: NCI-H522 lung
MALME-3M melanoma = tested on: MALME-3M melanoma
SK-MEL-5 melanoma = tested on: SK-MEL-5 melanoma
A549 NSCLC = tested on: A549 NSCLC
HCT-15 colon = tested on: HCT-15 colon
SK-MEL-2 melanoma = tested on: SK-MEL-2 melanoma
HS 578T breast = tested on: HS 578T breast
SK-OV-3 ovarian = tested on: SK-OV-3 ovarian
DU-145 prostate = tested on: DU-145 prostate
MDA-MB-435 = tested on: MDA-MB-435
HT29 colon = tested on: HT29 colon
UACC-62 melanoma = tested on: UACC-62 melanoma
KM12 colon = tested on: KM12 colon
TK-10 renal = tested on: TK-10 renal
UO-31 renal = tested on: UO-31 renal
SNB-19 CNS = tested on: SNB-19 CNS
SNB-75 CNS = tested on: SNB-75 CNS
IGROV1 ovarian = tested on: IGROV1 ovarian
PC-3 prostate = tested on: PC-3 prostate
A498 renal = tested on: A498 renal
LOX IMVI melanoma = tested on: LOX IMVI melanoma
OVCAR-4 ovarian = tested on: OVCAR-4 ovarian
BT-549 breast = tested on: BT-549 breast
K-562 leukemia = tested on: K-562 leukemia
SK-MEL-28 melanoma = tested on: SK-MEL-28 melanoma
SN12C renal = tested on: SN12C renal
NCI/ADR-RES ovarian = tested on: NCI/ADR-RES ovarian
NCI-H226 lung = tested on: NCI-H226 lung
COLO 205 colon = tested on: COLO 205 colon
OVCAR-3 ovarian = tested on: OVCAR-3 ovarian
HCT-116 colon = tested on: HCT-116 colon
MCF7 breast = tested on: MCF7 breast
HCC-2998 colon = tested on: HCC-2998 colon
NCI-H23 lung = tested on: NCI-H23 lung
OVCAR-5 ovarian = tested on: OVCAR-5 ovarian
HL-60(TB) leukemia = tested on: HL-60(TB) leukemia
MDA-MB-231 breast = tested on: MDA-MB-231 breast
OVCAR-8 ovarian = tested on: OVCAR-8 ovarian
RXF 393 renal = tested on: RXF 393 renal
RPMI-8226 leukemia = tested on: RPMI-8226 leukemia
CAKI-1 renal = tested on: CAKI-1 renal
M14 melanoma = tested on: M14 melanoma

`Oc1c(Br)cc(Br)c2ccc(Cn3cc(-c4ccc(C(F)(F)F)cc4)nn3)nc12` showed a GI50 (HOP-92 NSCLC) of 1.52 µM, a TGI (HOP-92 NSCLC) of 4.4 µM and a GI50 (SW-620 colon) of 0.548 µM. It also gave a TGI (SW-620 colon) of 2.13 µM, a GI50 (HOP-62 NSCLC) of 15.6 µM and a TGI (HOP-62 NSCLC) of 30.8 µM. The GI50 (EKVX NSCLC) was 7.43 µM, the TGI (EKVX NSCLC) was 20.9 µM and the GI50 (SF-539 CNS) was 1.59 µM. The TGI (SF-539 CNS) was 3.01 µM, the GI50 (MOLT-4 leukemia) was 1.01 µM and the TGI (MOLT-4 leukemia) was 5.76 µM. The GI50 (UACC-257 melanoma) was 1.31 µM, the TGI (UACC-257 melanoma) was 3.19 µM and the GI50 (SF-268 CNS) was 4.7 µM. For the same compound, the TGI (SF-268 CNS) was 17.9 µM, the GI50 (SF-295 CNS) was 17.2 µM and the TGI (SF-295 CNS) was 31.2 µM. For the same compound, the GI50 (ACHN renal) was 1.38 µM, the TGI (ACHN renal) was 2.7 µM and the GI50 (786-0 renal) was 1.92 µM. It also gave a TGI (786-0 renal) of 4.54 µM, a GI50 (T-47D breast) of 1.72 µM and a TGI (T-47D breast) of 5.84 µM. It also gave a GI50 (U251 CNS) of 4.42 µM, a TGI (U251 CNS) of 16.5 µM and a GI50 (NCI-H460 lung) of 19 µM. It also gave a TGI (NCI-H460 lung) of 37.3 µM, a GI50 (SR leukemia) of 0.794 µM and a TGI (SR leukemia) of 5.86 µM. It also gave a GI50 (NCI-H522 lung) of 1.08 µM, a TGI (NCI-H522 lung) of 3.01 µM and a GI50 (MALME-3M melanoma) of 1.65 µM. For the same compound, the TGI (MALME-3M melanoma) was 3.67 µM, the GI50 (SK-MEL-5 melanoma) was 3.16 µM and the TGI (SK-MEL-5 melanoma) was 11.7 µM. The GI50 (A549 NSCLC) was 16.6 µM, the TGI (A549 NSCLC) was 34.3 µM and the GI50 (HCT-15 colon) was 1.56 µM. For the same compound, the TGI (HCT-15 colon) was 3.46 µM, the GI50 (SK-MEL-2 melanoma) was 2.73 µM and the TGI (SK-MEL-2 melanoma) was 9.67 µM. For the same compound, the GI50 (HS 578T breast) was 3.03 µM, the TGI (HS 578T breast) was 10.3 µM and the GI50 (SK-OV-3 ovarian) was 17.8 µM. It also gave a TGI (SK-OV-3 ovarian) of 32.1 µM, a GI50 (DU-145 prostate) of 1.67 µM and a TGI (DU-145 prostate) of 3.19 µM. For the same compound, the GI50 (MDA-MB-435) was 1.85 µM, the TGI (MDA-MB-435) was 4.39 µM and the GI50 (HT29 colon) was 1.92 µM. For the same compound, the TGI (HT29 colon) was 4.55 µM, the GI50 (UACC-62 melanoma) was 3.4 µM and the TGI (UACC-62 melanoma) was 14.4 µM. For the same compound, the GI50 (KM12 colon) was 8.84 µM, the TGI (KM12 colon) was 21.4 µM and the GI50 (TK-10 renal) was 1.82 µM. It also gave a TGI (TK-10 renal) of 3.79 µM, a GI50 (UO-31 renal) of 1.68 µM and a TGI (UO-31 renal) of 5.03 µM. The GI50 (SNB-19 CNS) was 11.1 µM, the TGI (SNB-19 CNS) was 24.5 µM and the GI50 (SNB-75 CNS) was 1.49 µM. It also gave a TGI (SNB-75 CNS) of 8.04 µM, a GI50 (IGROV1 ovarian) of 1.49 µM and a TGI (IGROV1 ovarian) of 3.25 µM. For the same compound, the GI50 (PC-3 prostate) was 2.9 µM, the TGI (PC-3 prostate) was 12.4 µM and the GI50 (A498 renal) was 3.36 µM. It also gave a TGI (A498 renal) of 13.8 µM, a GI50 (LOX IMVI melanoma) of 0.379 µM and a TGI (LOX IMVI melanoma) of 1.52 µM. For the same compound, the GI50 (OVCAR-4 ovarian) was 1.45 µM, the TGI (OVCAR-4 ovarian) was 3.11 µM and the GI50 (BT-549 breast) was 2.16 µM. For the same compound, the TGI (BT-549 breast) was 5.98 µM, the GI50 (K-562 leukemia) was 0.41 µM and the TGI (K-562 leukemia) was 11.8 µM. It also gave a GI50 (SK-MEL-28 melanoma) of 1.7 µM, a TGI (SK-MEL-28 melanoma) of 3.44 µM and a GI50 (SN12C renal) of 3.53 µM. The TGI (SN12C renal) was 14.4 µM, the GI50 (NCI/ADR-RES ovarian) was 21.1 µM and the TGI (NCI/ADR-RES ovarian) was 71.7 µM. For the same compound, the GI50 (NCI-H226 lung) was 4.46 µM, the TGI (NCI-H226 lung) was 19.7 µM and the GI50 (COLO 205 colon) was 1.28 µM. The TGI (COLO 205 colon) was 2.93 µM, the GI50 (OVCAR-3 ovarian) was 1.42 µM and the TGI (OVCAR-3 ovarian) was 2.8 µM. For the same compound, the GI50 (HCT-116 colon) was 0.586 µM, the TGI (HCT-116 colon) was 2.05 µM and the GI50 (MCF7 breast) was 0.532 µM. It also gave a TGI (MCF7 breast) of 2.36 µM, a GI50 (HCC-2998 colon) of 8.87 µM and a TGI (HCC-2998 colon) of 22.6 µM. For the same compound, the GI50 (NCI-H23 lung) was 2.31 µM, the TGI (NCI-H23 lung) was 6.18 µM and the GI50 (OVCAR-5 ovarian) was 3.45 µM. It also gave a TGI (OVCAR-5 ovarian) of 12.9 µM, a GI50 (HL-60(TB) leukemia) of 0.674 µM and a TGI (HL-60(TB) leukemia) of 3.06 µM. The GI50 (MDA-MB-231 breast) was 2.06 µM, the TGI (MDA-MB-231 breast) was 5.02 µM and the GI50 (OVCAR-8 ovarian) was 2.62 µM. The TGI (OVCAR-8 ovarian) was 7.76 µM, the GI50 (RXF 393 renal) was 0.662 µM and the TGI (RXF 393 renal) was 2.17 µM. For the same compound, the GI50 (RPMI-8226 leukemia) was 1.59 µM, the TGI (RPMI-8226 leukemia) was 5.6 µM and the GI50 (CAKI-1 renal) was 1.27 µM. For the same compound, the TGI (CAKI-1 renal) was 2.69 µM, the GI50 (M14 melanoma) was 1.81 µM and the TGI (M14 melanoma) was 4.44 µM.
